Key:
Experiment in all cases: cell-free kinase assay
Assay type in all cases: biochemical
AurA = molecular target: T1, AurA (Homo sapiens, UniProt O14965); conditions: single inhibitor concentration
T1 construct: purchased Carna Biosciences
From the text: (§1) We investigated the potency and selectivity of BI 10N against 56 kinases using a cell-free assay (Table 8A).
(§2) The selectivity of this inhibitor was investigated by testing the potency of the inhibitor at two concentrations with 53 kinases by Carna Biosciences (MA) (Table 2).

CHK1 = molecular target: T2, CHK1 (Homo sapiens, UniProt O14757); conditions: single inhibitor concentration
T2 construct: purchased Carna Biosciences
T2 sequence (O14757 whole entry): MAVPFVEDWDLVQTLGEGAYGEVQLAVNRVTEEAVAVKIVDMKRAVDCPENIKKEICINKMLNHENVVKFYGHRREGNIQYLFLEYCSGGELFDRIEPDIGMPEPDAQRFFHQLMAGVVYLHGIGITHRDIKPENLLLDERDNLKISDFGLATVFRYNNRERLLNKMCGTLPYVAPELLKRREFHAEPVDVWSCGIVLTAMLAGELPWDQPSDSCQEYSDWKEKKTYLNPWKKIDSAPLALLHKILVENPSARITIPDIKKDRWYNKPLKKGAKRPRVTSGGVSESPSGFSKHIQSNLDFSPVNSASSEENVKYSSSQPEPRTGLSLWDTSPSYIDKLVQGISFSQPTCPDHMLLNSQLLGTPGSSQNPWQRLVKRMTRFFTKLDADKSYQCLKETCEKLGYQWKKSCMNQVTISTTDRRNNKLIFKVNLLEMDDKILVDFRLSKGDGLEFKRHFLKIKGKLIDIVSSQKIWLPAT
From the text: as §1, §2

CK1ε = molecular target: T3, CK1ε (Homo sapiens, UniProt P49674); conditions: single inhibitor concentration
T3 construct: purchased Carna Biosciences
From the text: as §1, §2

CSK = molecular target: T4, CSK (Homo sapiens, UniProt P41240); conditions: single inhibitor concentration
T4 construct: purchased Carna Biosciences
From the text: as §1, §2

CaMK4 = molecular target: T5, CaMK4 (Homo sapiens, UniProt Q16566); conditions: single inhibitor concentration
T5 construct: purchased Carna Biosciences
From the text: as §1, §2

DYRK1B = molecular target: T6, DYRK1B (Homo sapiens, UniProt Q9Y463); conditions: single inhibitor concentration
T6 construct: purchased Carna Biosciences
From the text: as §1, §2

EPHA2 = molecular target: T7, EPHA2 (Homo sapiens, UniProt P29317); conditions: single inhibitor concentration
T7 construct: purchased Carna Biosciences
From the text: as §1, §2

EPHB4 = molecular target: T8, EPHB4 (Homo sapiens, UniProt P54760); conditions: single inhibitor concentration
T8 construct: purchased Carna Biosciences
From the text: as §1, §2

Erk2 = molecular target: T9, Erk2 (Homo sapiens, UniProt P28482); conditions: single inhibitor concentration
T9 construct: purchased Carna Biosciences
From the text: as §1, §2

FGR = molecular target: T10, FGR (Homo sapiens, UniProt P09769); conditions: ATP concentration at approximately the Km for ATP
T10 construct: purchased Carna Biosciences
From the text: as §1, §2

GSK3β = molecular target: T11, GSK3β (Homo sapiens, UniProt P49841); conditions: single inhibitor concentration
T11 construct: purchased Carna Biosciences
From the text: as §1, §2

IRAK4 = molecular target: T12, IRAK4 (Homo sapiens, UniProt Q9NWZ3)
T12 construct: purchased Carna Biosciences
T12 sequence (Q9NWZ3 whole entry): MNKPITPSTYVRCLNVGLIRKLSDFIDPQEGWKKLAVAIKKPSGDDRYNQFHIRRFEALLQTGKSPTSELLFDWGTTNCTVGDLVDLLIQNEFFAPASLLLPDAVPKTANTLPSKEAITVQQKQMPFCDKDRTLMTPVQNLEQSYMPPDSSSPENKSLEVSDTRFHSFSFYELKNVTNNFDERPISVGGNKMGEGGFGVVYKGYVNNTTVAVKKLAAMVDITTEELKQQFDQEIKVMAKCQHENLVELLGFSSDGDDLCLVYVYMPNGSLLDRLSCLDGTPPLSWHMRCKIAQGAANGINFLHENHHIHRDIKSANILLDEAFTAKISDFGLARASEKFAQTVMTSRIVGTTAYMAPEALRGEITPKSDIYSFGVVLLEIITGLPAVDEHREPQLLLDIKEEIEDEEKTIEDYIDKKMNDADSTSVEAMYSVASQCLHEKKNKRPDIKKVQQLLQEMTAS
From the text: as §1, §2

ITK = molecular target: T13, ITK (Homo sapiens, UniProt Q08881)
T13 construct: purchased Carna Biosciences
T13 sequence (Q08881 1-620): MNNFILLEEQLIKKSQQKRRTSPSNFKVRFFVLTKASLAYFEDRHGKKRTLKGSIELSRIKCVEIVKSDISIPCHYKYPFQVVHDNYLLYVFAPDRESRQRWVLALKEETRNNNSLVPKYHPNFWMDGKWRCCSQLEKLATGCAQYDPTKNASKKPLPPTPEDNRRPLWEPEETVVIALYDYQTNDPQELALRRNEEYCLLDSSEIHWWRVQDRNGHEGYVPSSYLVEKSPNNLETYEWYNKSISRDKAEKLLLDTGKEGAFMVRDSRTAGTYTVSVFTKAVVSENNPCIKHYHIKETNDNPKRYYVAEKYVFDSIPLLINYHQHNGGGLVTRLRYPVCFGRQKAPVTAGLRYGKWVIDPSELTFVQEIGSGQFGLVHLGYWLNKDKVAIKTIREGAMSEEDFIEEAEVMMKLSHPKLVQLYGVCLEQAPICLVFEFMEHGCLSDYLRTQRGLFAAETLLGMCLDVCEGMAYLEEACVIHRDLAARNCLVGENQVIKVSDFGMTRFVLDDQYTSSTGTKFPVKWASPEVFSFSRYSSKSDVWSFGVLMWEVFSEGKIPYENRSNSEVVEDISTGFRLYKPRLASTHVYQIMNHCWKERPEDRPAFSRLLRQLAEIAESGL
From the text: as §1, §2

JAK3 = molecular target: T14, JAK3 (Homo sapiens, UniProt P52333); conditions: single inhibitor concentration
T14 construct: purchased Carna Biosciences
From the text: as §1, §2

JNK2 = molecular target: T15, JNK2 (Homo sapiens, UniProt P45984); conditions: single inhibitor concentration
T15 construct: purchased Carna Biosciences
From the text: as §1, §2

KDR = molecular target: T16, KDR (Homo sapiens, UniProt P35968); conditions: single inhibitor concentration
T16 construct: purchased Carna Biosciences
T16 sequence (P35968 20-1356): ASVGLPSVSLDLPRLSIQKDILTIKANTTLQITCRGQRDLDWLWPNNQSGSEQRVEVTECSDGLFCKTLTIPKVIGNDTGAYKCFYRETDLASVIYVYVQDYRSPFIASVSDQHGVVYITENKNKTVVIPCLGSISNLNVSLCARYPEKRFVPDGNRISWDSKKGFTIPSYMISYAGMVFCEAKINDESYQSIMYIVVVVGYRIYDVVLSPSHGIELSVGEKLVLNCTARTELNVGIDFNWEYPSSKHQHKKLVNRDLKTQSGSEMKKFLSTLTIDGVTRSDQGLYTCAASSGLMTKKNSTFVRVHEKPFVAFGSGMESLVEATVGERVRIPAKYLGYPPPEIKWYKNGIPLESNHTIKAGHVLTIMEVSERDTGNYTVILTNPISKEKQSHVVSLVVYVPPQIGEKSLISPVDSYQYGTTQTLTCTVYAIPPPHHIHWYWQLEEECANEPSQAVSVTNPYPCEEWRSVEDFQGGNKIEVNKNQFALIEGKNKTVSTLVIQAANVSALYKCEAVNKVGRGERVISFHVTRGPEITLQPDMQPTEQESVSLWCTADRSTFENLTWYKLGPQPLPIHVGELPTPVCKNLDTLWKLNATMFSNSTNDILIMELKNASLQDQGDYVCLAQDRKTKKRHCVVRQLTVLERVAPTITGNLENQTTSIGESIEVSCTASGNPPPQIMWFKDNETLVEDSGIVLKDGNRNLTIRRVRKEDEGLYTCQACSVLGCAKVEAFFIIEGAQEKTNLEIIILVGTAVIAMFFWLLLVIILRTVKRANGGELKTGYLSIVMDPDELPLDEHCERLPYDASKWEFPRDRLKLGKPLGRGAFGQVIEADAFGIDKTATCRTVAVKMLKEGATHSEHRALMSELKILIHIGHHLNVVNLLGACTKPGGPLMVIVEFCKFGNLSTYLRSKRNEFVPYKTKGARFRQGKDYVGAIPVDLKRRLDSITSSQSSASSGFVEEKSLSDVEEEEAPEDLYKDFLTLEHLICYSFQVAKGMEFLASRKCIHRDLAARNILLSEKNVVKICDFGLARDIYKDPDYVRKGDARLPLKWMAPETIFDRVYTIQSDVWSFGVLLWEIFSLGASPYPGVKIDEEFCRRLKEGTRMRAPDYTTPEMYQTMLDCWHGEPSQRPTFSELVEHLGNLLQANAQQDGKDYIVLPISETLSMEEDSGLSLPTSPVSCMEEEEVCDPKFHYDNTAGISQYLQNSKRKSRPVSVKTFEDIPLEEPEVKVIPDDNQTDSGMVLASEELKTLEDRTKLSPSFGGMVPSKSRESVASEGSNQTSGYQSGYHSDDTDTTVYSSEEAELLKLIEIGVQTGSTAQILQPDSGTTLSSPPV
From the text: as §1, §2

LYNa = molecular target: T17, LYNa (Homo sapiens, UniProt P07948); conditions: ATP concentration at approximately the Km for ATP
T17 construct: purchased Carna Biosciences
From the text: as §1, §2

LYNb = molecular target: T18, LYNb (Homo sapiens, UniProt P07948); conditions: ATP concentration at approximately the Km for ATP
T18 construct: purchased Carna Biosciences
From the text: as §1, §2

MAPKAPK2 = molecular target: T19, MAPKAPK2 (Homo sapiens, UniProt P49137); conditions: single inhibitor concentration
T19 construct: purchased Carna Biosciences
From the text: as §1, §2

NEK2 = molecular target: T20, NEK2 (Homo sapiens, UniProt P51955); conditions: single inhibitor concentration
T20 construct: purchased Carna Biosciences
From the text: as §1, §2

PAK2 = molecular target: T21, PAK2 (Homo sapiens, UniProt Q13177); conditions: single inhibitor concentration
T21 construct: purchased Carna Biosciences
From the text: as §1, §2

PDGFRα = molecular target: T22, PDGFRα (Homo sapiens, UniProt P16234)
T22 construct: purchased Carna Biosciences
T22 sequence (P16234 24-1089): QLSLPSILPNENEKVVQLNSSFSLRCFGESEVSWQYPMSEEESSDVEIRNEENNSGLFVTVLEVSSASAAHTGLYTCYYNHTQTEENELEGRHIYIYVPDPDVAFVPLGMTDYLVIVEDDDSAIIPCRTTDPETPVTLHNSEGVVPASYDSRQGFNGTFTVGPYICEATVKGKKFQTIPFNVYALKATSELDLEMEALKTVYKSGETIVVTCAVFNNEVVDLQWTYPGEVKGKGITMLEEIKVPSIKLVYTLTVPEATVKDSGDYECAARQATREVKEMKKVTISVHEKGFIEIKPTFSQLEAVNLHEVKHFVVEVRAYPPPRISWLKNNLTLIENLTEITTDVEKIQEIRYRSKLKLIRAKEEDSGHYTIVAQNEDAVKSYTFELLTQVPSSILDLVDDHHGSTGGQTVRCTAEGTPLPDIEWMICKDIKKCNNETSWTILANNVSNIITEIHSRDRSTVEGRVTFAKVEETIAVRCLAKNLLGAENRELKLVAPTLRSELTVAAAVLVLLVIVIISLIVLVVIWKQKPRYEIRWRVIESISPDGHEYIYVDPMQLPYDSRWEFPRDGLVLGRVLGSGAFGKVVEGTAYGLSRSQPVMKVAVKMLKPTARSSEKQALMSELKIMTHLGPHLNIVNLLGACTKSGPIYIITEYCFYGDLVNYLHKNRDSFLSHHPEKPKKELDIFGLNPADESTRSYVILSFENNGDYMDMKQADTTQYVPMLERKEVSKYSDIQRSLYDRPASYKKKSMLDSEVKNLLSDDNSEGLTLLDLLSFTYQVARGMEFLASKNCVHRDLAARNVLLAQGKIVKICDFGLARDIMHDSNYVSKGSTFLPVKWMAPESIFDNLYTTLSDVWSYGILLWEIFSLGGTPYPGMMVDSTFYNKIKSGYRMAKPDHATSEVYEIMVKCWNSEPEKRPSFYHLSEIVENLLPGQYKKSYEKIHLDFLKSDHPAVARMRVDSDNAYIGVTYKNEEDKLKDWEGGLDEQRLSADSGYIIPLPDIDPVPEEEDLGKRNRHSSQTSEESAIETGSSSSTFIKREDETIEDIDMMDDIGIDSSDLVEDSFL
From the text: as §1, §2

PIM1 = molecular target: T23, PIM1 (Homo sapiens, UniProt P11309); conditions: single inhibitor concentration
T23 construct: purchased Carna Biosciences
From the text: as §1, §2

PYK2 = molecular target: T24, PYK2 (Homo sapiens, UniProt Q14289); conditions: single inhibitor concentration
T24 construct: purchased Carna Biosciences
From the text: as §1, §2

SGK = molecular target: T25, SGK (Homo sapiens, UniProt O00141); conditions: single inhibitor concentration
T25 construct: purchased Carna Biosciences
From the text: as §1, §2

SYK = molecular target: T26, SYK (Homo sapiens, UniProt P43405); conditions: single inhibitor concentration
T26 construct: purchased Carna Biosciences
From the text: as §1, §2

TIE2 = molecular target: T27, TIE2 (Homo sapiens, UniProt Q02763); conditions: single inhibitor concentration
T27 construct: purchased Carna Biosciences
From the text: as §1, §2

TRKB = molecular target: T28, TRKB (Homo sapiens, UniProt Q16620)
T28 construct: purchased Carna Biosciences
T28 sequence (Q16620 32-822): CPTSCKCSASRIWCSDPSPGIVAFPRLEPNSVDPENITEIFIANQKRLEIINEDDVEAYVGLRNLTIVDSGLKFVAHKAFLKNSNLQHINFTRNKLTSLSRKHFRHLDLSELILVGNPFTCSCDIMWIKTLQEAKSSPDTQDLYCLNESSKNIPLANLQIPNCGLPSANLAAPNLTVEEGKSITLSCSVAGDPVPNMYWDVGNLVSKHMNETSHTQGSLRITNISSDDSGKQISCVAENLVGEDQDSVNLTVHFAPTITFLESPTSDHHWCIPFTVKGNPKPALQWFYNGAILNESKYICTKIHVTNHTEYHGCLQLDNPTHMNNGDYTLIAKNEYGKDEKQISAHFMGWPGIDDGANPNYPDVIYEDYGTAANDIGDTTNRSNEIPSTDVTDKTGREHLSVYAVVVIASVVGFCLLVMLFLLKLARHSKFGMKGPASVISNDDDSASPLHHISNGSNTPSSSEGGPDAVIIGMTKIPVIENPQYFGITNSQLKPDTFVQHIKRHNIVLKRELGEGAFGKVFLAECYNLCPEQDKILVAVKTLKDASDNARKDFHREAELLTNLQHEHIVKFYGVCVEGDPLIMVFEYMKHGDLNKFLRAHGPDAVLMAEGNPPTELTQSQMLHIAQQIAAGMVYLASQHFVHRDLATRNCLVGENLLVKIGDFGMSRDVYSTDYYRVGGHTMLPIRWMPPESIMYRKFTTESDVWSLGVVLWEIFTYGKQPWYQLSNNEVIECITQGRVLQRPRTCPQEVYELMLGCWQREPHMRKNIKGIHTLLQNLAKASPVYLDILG
From the text: as §1, §2

TSSK1 = molecular target: T29, TSSK1 (Homo sapiens, UniProt Q9BXA7)
T29 construct: purchased Carna Biosciences
T29 sequence (Q9BXA7 whole entry): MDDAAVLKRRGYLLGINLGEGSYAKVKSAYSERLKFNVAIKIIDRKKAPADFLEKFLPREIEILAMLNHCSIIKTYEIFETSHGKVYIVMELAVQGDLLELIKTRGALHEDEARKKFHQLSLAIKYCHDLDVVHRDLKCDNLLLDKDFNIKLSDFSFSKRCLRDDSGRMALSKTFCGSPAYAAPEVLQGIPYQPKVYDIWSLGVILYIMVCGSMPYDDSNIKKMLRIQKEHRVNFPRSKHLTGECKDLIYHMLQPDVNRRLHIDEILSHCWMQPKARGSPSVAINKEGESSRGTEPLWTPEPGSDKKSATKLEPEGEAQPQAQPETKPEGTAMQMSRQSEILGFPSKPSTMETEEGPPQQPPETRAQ
From the text: as §1, §2

TYRO3 = molecular target: T30, TYRO3 (Homo sapiens, UniProt Q06418); conditions: single inhibitor concentration
T30 construct: purchased Carna Biosciences
From the text: as §1, §2

YES = molecular target: T31, YES (Homo sapiens, UniProt P07947); conditions: for IC50: YES
T31 construct: purchased Carna Biosciences
T31 sequence (P07947 whole entry): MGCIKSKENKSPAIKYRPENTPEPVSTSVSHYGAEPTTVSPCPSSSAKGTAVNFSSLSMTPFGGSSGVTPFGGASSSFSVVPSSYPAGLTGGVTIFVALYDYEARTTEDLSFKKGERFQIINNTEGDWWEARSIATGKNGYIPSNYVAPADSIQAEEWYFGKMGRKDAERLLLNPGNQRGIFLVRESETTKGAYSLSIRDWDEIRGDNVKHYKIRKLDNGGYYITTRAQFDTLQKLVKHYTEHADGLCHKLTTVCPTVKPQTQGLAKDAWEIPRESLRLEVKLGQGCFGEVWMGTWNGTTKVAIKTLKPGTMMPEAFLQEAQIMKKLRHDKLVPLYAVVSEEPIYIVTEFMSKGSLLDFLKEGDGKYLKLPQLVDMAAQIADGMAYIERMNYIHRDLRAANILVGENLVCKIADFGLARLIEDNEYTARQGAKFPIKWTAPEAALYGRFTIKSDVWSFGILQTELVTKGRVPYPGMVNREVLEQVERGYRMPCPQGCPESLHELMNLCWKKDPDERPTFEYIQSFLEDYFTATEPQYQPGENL
From the text: as §1, §2

ZAP70 = molecular target: T32, ZAP70 (Homo sapiens, UniProt P43403); conditions: ATP concentration at approximately the Km for ATP
T32 construct: purchased Carna Biosciences
From the text: as §1, §2

CC(C)C(C)CNCc1ccc2c(c1)[nH]/c(=N\C(=O)c1ccc(C3=CN=NC3)s1)n2CC(C)(C)O (stereo not drawn) [BI 10N]
inhibition at 0.2 µM (AurA): 15.9%
inhibition at 0.2 µM (CHK1): 60.3%
inhibition at 0.2 µM (CK1ε): 76.2%
inhibition at 0.2 µM (CSK): 32.4%
inhibition at 0.2 µM (CaMK4): -4.3%
inhibition at 0.2 µM (DYRK1B): 79.6%
inhibition at 0.2 µM (EPHA2): 7.8%
inhibition at 0.2 µM (EPHB4): 52.1%
inhibition at 0.2 µM (Erk2): -1.5%
IC50 (FGR): 2.89 nM
inhibition at 0.2 µM (GSK3β): 31.5%
IC50 (IRAK4; Table 2, by Carna Biosciences): 3.14 nM
inhibition at 0.2 µM (IRAK4; single inhibitor concentration): 105%
mode of inhibition (ITK; ITK): time-dependent inhibitor
IC50 (ITK; ITK, 1 mM ATP, Km ATP 6.1 μM): 1.43 nM
IC50 (ITK; ITK, ATP at approximately the Km for ATP, more potent than can be measured): < 0.5 nM
IC50 (ITK; ITK, Table 2, by Carna Biosciences): 0.486 nM
Km (ITK; ITK, calculated from IC50 at 1 mM ATP, read-out: Calculated Apparent Km for BI 10N Binding): 0.00865 nM
inhibition at 0.2 µM (ITK; ITK, single inhibitor concentration): 107%
Ki (ITK; tight binding studies, read-out: K (affinity for ITK)): 8.6 pM
inhibition at 0.2 µM (JAK3): 75%
inhibition at 0.2 µM (JNK2): -0.1%
inhibition at 0.2 µM (KDR): 79.3%
IC50 (LYNa): 36.6 nM
IC50 (LYNb): 43 nM
inhibition at 0.2 µM (MAPKAPK2): -5.2%
inhibition at 0.2 µM (NEK2): 0.3%
inhibition at 0.2 µM (PAK2): 4.5%
IC50 (PDGFRα; Table 2, by Carna Biosciences): 10.1 nM
inhibition at 0.2 µM (PDGFRα; single inhibitor concentration): 101%
inhibition at 0.2 µM (PIM1): 10.4%
inhibition at 0.2 µM (PYK2): 35.1%
inhibition at 0.2 µM (SGK): 1.4%
inhibition at 0.2 µM (SYK): 40.6%
inhibition at 0.2 µM (TIE2): 8.2%
IC50 (TRKB): 1.28 nM
selectivity for ITK over TRKB (TRKB): about 10 fold
IC50 (TSSK1; Table 2, by Carna Biosciences): 28.6 nM
inhibition at 0.2 µM (TSSK1; single inhibitor concentration): 88.9%
inhibition at 0.2 µM (TYRO3): 35.6%
selectivity for ITK over YES (YES): about 10 fold
IC50 (YES; 1 mM ATP, Km ATP 13 μM): 5.9 nM
IC50 (YES; ATP concentration at approximately the Km for ATP): 0.993 nM
IC50 (YES; Table 2, by Carna Biosciences): 0.993 nM
IC50 (ZAP70): 7.09 µM

— patent publication US9649313B2, “Use of ITK inhibitors for the treatment of cancer” (The University of North Carolina at Chapel Hill, priority 2012, dated 2017)
